This experiment addresses T1, TESK2 (Homo sapiens, UniProt Q96S53).
T1 construct: purchased Thermo Fisher Scientific (Life Technologies) SelectScreen
In words: SelectScreen LanthaScreen. Type of experiment: binding. The note with it: read-out: % displacement. The method in brief: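 SelectScreen broad panel; activity (Z'LYTE, Adapta) plus binding formats. ATP: Km app for CSF1R Z'LYTE; 10 for CAMK1 Adapta. Readout = % per kinase.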
Background: TR-FRET usually uses a lanthanide donor and a delayed reading to cut background.

Our source for the inhibition values is publication PMC6934184, “Selective DNA-PKcs inhibition extends the therapeutic index of localized radiotherapy and chemotherapy” (The Journal of Clinical Investigation, 2019).

Molecules are shown by their SMILES.

T1 sequence (Q96S53 whole entry): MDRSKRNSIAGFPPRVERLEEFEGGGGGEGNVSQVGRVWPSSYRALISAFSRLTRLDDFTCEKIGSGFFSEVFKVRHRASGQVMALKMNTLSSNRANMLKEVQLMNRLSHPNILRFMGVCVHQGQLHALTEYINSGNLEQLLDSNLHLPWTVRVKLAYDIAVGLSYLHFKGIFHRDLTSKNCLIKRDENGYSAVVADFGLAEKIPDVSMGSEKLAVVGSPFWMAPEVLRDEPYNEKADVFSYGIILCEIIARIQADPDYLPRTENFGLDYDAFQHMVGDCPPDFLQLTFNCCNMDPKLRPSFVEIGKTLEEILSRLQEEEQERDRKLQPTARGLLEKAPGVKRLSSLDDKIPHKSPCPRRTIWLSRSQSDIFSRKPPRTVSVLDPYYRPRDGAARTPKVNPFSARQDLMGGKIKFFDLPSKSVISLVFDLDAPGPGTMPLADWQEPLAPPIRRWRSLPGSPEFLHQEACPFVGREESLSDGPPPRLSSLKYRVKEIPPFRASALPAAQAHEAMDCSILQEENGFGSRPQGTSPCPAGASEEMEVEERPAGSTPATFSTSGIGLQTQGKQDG

Turning to `CN(C(=O)CN1CCOCC1)c1ccc2sc3c(-c4cccc5c(=O)cc(N6CC7CCC(C6)O7)oc45)cccc3c2c1` [NU5455], the inhibition at 1 µM turned out to be 2.7%.
